Source: ChEMBL document CHEMBL3045184, “3D-QSAR studies of natural flavonoid compounds as reverse transcriptase inhibitors” (Med Chem Res, 2012)

Molecular target: T1, Avian myoblastosis virus polyprotein II (Avian myeloblastosis virus) (UniProt Q86831)
T1 sequence (whole entry): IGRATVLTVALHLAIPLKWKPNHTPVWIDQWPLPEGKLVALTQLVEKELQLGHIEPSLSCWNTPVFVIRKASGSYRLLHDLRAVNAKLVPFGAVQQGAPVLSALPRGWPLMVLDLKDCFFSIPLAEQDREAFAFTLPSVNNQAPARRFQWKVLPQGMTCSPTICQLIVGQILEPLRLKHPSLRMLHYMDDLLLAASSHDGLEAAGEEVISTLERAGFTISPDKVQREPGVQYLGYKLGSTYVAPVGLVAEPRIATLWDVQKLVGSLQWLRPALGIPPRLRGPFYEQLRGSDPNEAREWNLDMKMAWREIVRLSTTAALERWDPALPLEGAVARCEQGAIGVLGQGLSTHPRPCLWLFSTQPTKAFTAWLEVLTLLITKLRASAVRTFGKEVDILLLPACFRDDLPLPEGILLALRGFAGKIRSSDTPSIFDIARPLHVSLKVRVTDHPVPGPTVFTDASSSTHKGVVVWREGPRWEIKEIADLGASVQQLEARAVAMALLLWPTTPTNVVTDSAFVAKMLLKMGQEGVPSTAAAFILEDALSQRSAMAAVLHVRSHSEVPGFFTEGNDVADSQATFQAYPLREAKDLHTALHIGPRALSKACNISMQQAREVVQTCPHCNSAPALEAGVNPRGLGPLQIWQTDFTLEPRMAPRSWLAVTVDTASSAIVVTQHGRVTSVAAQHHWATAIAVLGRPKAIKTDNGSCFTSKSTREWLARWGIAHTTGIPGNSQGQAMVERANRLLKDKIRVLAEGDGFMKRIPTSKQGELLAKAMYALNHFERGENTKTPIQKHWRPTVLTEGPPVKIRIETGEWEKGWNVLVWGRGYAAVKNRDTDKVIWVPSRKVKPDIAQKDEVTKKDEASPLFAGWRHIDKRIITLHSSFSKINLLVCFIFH
Assay: Inhibition of Avian myeloblastosis virus reverse transcriptase
Parameters: concentration or dose not given beside the values
Settings: concentration not given here

| Structure (SMILES) | inhibition [%] |
| --- | --- |
| COc1ccc(-c2cc(=O)c3c(O)cc(OC)cc3o2)cc1 | 54.8 |
| O=c1c(O)c(-c2ccc(O)cc2)oc2cc(O)c(O)c(O)c12 | 97.2 |
| COc1c(O)cc2oc(-c3ccccc3)cc(=O)c2c1OC | 32.7 |
| COc1c(OC(C)C)cc(O)c2c(=O)cc(-c3ccc(O)cc3)oc12 | 15.4 |
| CC(C)Oc1ccc(-c2cc(=O)c3c(O)cc(O)cc3o2)cc1OC(C)C | 12.2 |
| O=c1c(O)c(-c2ccccc2)oc2cc(O)cc(O)c12 | 42.1 |
| COc1cccc(O)c1-c1cc(=O)c2c(O)c(OC)c(OC)c(OC)c2o1 | 18 |
| O=c1cc(-c2ccc(O)c(O)c2)oc2c(O)c(O)cc(O)c12 | 31.3 |
| O=c1c(O)c(-c2ccc(O)cc2O)oc2cc(O)cc(O)c12 | 40.5 |
| O=c1c(O)c(-c2ccccc2O)oc2cc(O)cc(O)c12 | 28 |
| O=c1cc(-c2ccc(O)c(O)c2)oc2cc(O)c(O)c(O)c12 | 91.7 |
| CC(C)Oc1ccc(-c2cc(=O)c3c(O)cc(OC(C)C)cc3o2)cc1 | 23.6 |
| CC(C)Oc1cc(OC(C)C)c2c(=O)cc(-c3ccccc3)oc2c1 | 24.2 |
| CC(C)Oc1ccc(-c2cc(=O)c3c(O)cc(O)c(O)c3o2)cc1OC(C)C | 17.6 |
| COc1cc2oc(-c3ccccc3)cc(=O)c2c(O)c1OC | 45.9 |
| COc1c(O)cc2oc(-c3ccc(O)cc3)cc(=O)c2c1O | 23.3 |
| O=c1cc(-c2ccccc2)oc2c(O)c(OCc3ccccc3)cc(O)c12 | 19 |
| COc1cc2oc(-c3ccccc3)cc(=O)c2c(OC)c1OC | 29.8 |
| O=c1cc(-c2ccccc2)oc2cc(OCc3ccccc3)cc(O)c12 | 34.9 |
| COc1cccc(OC)c1-c1cc(=O)c2c(O)c(OC)c(OC)c(OC)c2o1 | 5.4 |
| COc1c(O)cc(O)c2c(=O)cc(-c3ccccc3O)oc12 | 8.5 |
| O=c1c(O)c(-c2cc(O)c(O)c(O)c2)oc2cc(O)cc(O)c12 | 82.5 |
| O=c1cc(-c2ccc(O)cc2)oc2c(O)c(O)cc(O)c12 | 22 |
| COc1cc(O)c2c(=O)c(O)c(-c3ccc(O)c(O)c3)oc2c1 | 50.8 |
| COc1ccc(-c2oc3cc(O)cc(O)c3c(=O)c2O)cc1 | 64.6 |
| COc1cc(O)c2c(=O)cc(-c3ccccc3)oc2c1OC | 9.8 |
| O=c1c(O)c(-c2cc(O)c(O)c(O)c2)oc2cc(O)ccc12 | 87.5 |
| O=c1c(O)c(-c2ccc(O)c(O)c2)oc2cc(O)c(O)c(O)c12 | 98.4 |

| Structure (SMILES) | inhibition [%] |
| --- | --- |
| O=c1cc(-c2ccccc2)oc2c(O)c(O)cc(O)c12 | 36.9 |
| COc1cc(O)c2c(=O)cc(-c3ccccc3OC(C)=O)oc2c1OC | 17 |
| COc1ccc(-c2cc(=O)c3c(OC)cc(OC)cc3o2)cc1 | 45.6 |
| COc1ccc(-c2cc(=O)c3c(O)c(O)c(OC)c(O)c3o2)cc1 | 39.1 |
| CC(C)Oc1ccc(-c2cc(=O)c3c(O)cc(O)cc3o2)cc1 | 55.4 |
| COc1ccc(-c2cc(=O)c3c(O)cc(O)cc3o2)cc1 | 48 |
| COc1cc(O)c2c(=O)c(O)c(-c3ccc(OC)c(O)c3)oc2c1 | 68.1 |
| COc1ccc(-c2oc3cc(O)cc(O)c3c(=O)c2O)cc1O | 59.7 |
| O=c1c(O)c(-c2c(O)cccc2O)oc2cc(O)cc(O)c12 | 21.3 |
| CC(=O)Oc1ccc(-c2cc(=O)c3c(OC(C)=O)cc(OC(C)=O)cc3o2)cc1 | 24.7 |
| COc1ccc(-c2cc(=O)c3ccc(O)cc3o2)cc1 | 13.6 |
| CC(C)Oc1ccc(-c2cc(=O)c3c(O)c(O)c(OC(C)C)c(O)c3o2)cc1 | 46.2 |
| O=c1c(O)c(-c2ccc(O)cc2)oc2cc(O)cc(O)c12 | 72.6 |
| O=c1cc(-c2ccccc2O)oc2c(O)c(O)cc(O)c12 | 67.7 |
| CC(C)Oc1ccc(-c2cc(=O)c3c(O)c(O)c(OC(C)C)cc3o2)cc1 | 18 |
| COc1cc2oc(-c3ccc(O)cc3)cc(=O)c2c(O)c1OC | 50.9 |
| O=c1c(O)c(-c2ccc(O)c(O)c2)oc2c(O)c(O)cc(O)c12 | 85.1 |
| O=c1c(O)c(-c2ccc(O)c(O)c2)oc2cc(O)cc(O)c12 | 41.4 |
| COc1cc2oc(-c3ccc(O)c(O)c3)cc(=O)c2c(O)c1O | 91.4 |
| COc1c(OC(C)=O)cc2oc(-c3ccccc3)cc(=O)c2c1O | 18.3 |
| O=c1cc(-c2ccc(O)cc2)oc2cc(O)c(O)c(O)c12 | 99.4 |
| O=c1cc(-c2ccccc2)oc2cc(O)c(O)c(O)c12 | 95 |
| COc1cc(O)c2c(=O)c(OC)c(-c3ccc(OC)c(OC)c3)oc2c1 | 9.2 |
| COc1cc(-c2oc3cc(O)ccc3c(=O)c2O)ccc1O | 52.7 |
| COc1ccc(-c2cc(=O)c3c(O)cc(OC(C)C)c(OC)c3o2)cc1 | 12 |
| COc1c(O)cc(O)c2c(=O)cc(-c3ccccc3)oc12 | 36.8 |
| CC(=O)Oc1cc2oc(-c3ccccc3)cc(=O)c2c(OC(C)=O)c1OC(C)=O | 71.4 |
